Measurements taken from patent publication US9307765B2, “Selective weed control using D-napropamide” (UPL Limited, priority 2013, dated 2016).
Several values for one entry are separate records, joined by “and”; a condition that tells them apart may be missing. Identical values can stand only once.

Key:
Format in all cases: in vivo
[1] = tested on: Digitaria sanguinalis; assay: Plot trial, % control of Digitaria sanguinalis
Description: (§1) Field trials were conducted on various moncotyledonous weeds and dicotyledonous weeds and the effect of D-isomer of Napropamide was studied to understand the selective and effective control of dicotyledonous weeds over monocotyledonous weeds. The effect of D-isomer of Napropamide in comparison to racemic napropramide and untreated was studied, which is concluded hereinbelow:
(§2) Several small plot replicated trials were carried out to evaluate and/or compare the efficacy of D-Napropamide against a range of indicated annual broadleaved and grass weed species in the indicated crops. No problems were encountered during mixing or application of any of the product formulations or tank mixtures under test.
In each of the reported data, the homogeneity of variance was tested by Bartlett's test. Wherever this test indicated no homogeneity of variance, the transformed values were used for analysis of variance. Assessment data was then analyzed using a two-way analysis of variance (ANOVA) on untransformed and transformed data. The probability of no significant differences occurring between treatment means was calculated as the F probability value (p(F)). A mean comparison test was only performed and reported when the treatment of F that was calculated during analysis of variance was significant at the observed significance level specified for the mean comparison test. Where the data was transformed, treatment means in the reports were presented in their detransformed state, with the appropriate letter test and mean descriptions (LSD and standard deviation) derived from the transformed ANOVA. […]

[2] = tested on: Ranunculus repens; assay: Field trial on strawberries, pre-emergence, visual % control
Description: as §1, §2
(§3) In each of the reported data, the homogeneity of variance was tested by Bartlett's test. Wherever this test indicated no homogeneity of variance, the transformed values were used for analysis of variance. Assessment data was then analyzed using a two-way analysis of variance (ANOVA) on untransformed and transformed data. The probability of no significant differences occurring between treatment means was calculated as the F probability value (p(F)). A mean comparison test was only performed and reported when the treatment of F that was calculated during analysis of variance was significant at the observed significance level specified for the mean comparison test. Where the data was transformed, treatment means in the reports were presented in their detransformed state, with the appropriate letter test and mean descriptions (LSD and standard deviation) derived from the transformed ANOVA.
Trial was carried out on strawberries to evaluate the efficacy and selectivity of D-Napropamide and equivalent rate of Devrinol (Napropramide) applied pre-emergence. […] The percentage control of D-isomer of Napropamide and Devrinol was assessed in comparison to the untreated after 224 days after application.

[3] = tested on: Papaver rhoeas; assay: as above
Description: as §1, §2, §3
(§4) Trial was carried out on strawberries to evaluate the efficacy and selectivity of D-Napropamide and equivalent rate of Devrinol (Napropramide) applied pre-emergence. […]

[4] = tested on: Senecio vulgaris; assay: as above
Description: as §1, §2, §3, §4

[5] = tested on: Aperaspica-venti; assay: Field trial in winter oilseed rape, pre-emergence, % control
Description: as §1, §2, §3
(§5) Trials were conducted to evaluate the selectivity and efficacy of D-isomer of Napropamide when applied pre-emergence to oilseed rape crop. The % control of weed was assessed at regular intervals.

[6] = tested on: Triticum aestivum; assay: as above
Description: as §1, §2, §3, §5

[7] = tested on: Fallopia convolvulus; assay: as above
Description: as §1, §2, §3, §5

[8] = tested on: Cirsium arvense; assay: as above
Description: as §1, §2, §3, §5

[9] = tested on: Veronica persica; assay: as above
Description: as §1, §2, §3, §5

[10] = tested on: Senecio vulgaris; assay: as above
Description: as §1, §2, §3, §5

[11] = tested on: Matricaria sp.; assay: Field trial in winter oilseed rape, pre-emergence, % control and ground cover
Description: as §1, §2, §3, §5

[12] = 3.0 L/Ha of 450 g/L formulation
[13] = 4.2 L/Ha of 450 g/L formulation
[14] = 8.5 L/Ha of 450 g/L formulation
[15] = 450 g/L @ 1.6 L/Ha, listed as D Napropamide

## CCN(CC)C(=O)[C@@H](C)Oc1cccc2ccccc12 [D-Napropamide, D-(−)-N,N-diethyl-2-(α-naphthoxy)propionamide]
[1]; 3 L/Ha of 450 g/L formulation, 16 DAA
  % Control: 7.50%
[1]; 3 L/Ha of 450 g/L formulation, 33 DAA
  % Control: 8.75%
[1]; 4.5 L/Ha of 450 g/L formulation, 16 DAA
  % Control: 10.00%
[1]; 4.5 L/Ha of 450 g/L formulation, 33 DAA
  % Control: 10.00%
[1]; 6 L/Ha of 450 g/L formulation, 16 DAA
  % Control: 10.00%
[1]; 6 L/Ha of 450 g/L formulation, 33 DAA
  % Control: 12.50%
[1]; 7.5 L/Ha of 450 g/L formulation, 16 DAA
  % Control: 10.00%
[1]; 7.5 L/Ha of 450 g/L formulation, 33 DAA
  % Control: 11.25%
[1]; 9 L/Ha of 450 g/L formulation, 16 DAA
  % Control: 10.00%
[1]; 9 L/Ha of 450 g/L formulation, 33 DAA
  % Control: 18.75%
[1]; Digitaria sanguinalis
  Conclusion: efficacy in comparison to Napropamide in the control of monocotyledonous weeds: only as efficacious or less
[2]; [12]
  Percentage Control at 224 DAA: 66.7%
[2]; [13]
  Percentage Control at 224 DAA: 100%
[2]; [14]
  Percentage Control at 224 DAA: 100%
[2]; Ranunculus repens
  Conclusion: efficacy in control vis-à-vis Napropamide at an equivalent dosage: surprising efficacy
[3]; [12]
  Percentage Control at 70 DAA: 71.7%
[3]; [13]
  Percentage Control at 70 DAA: 95.0%
[3]; [14]
  Percentage Control at 70 DAA: 97.5%
[3]; Papaver rhoeas
  Conclusion: efficacy in control vis-à-vis Napropamide at an equivalent dosage: surprising efficacy
[4]; [12]
  Percentage Control at 70 DAA: 75.0%
[4]; [13]
  Percentage Control at 70 DAA: 50.0%
[4]; [14]
  Percentage Control at 70 DAA: 75.0%
[4]; Senecio vulgaris
  Conclusion: efficacy in control vis-à-vis Napropamide at an equivalent dosage: surprising efficacy
[5]; 450 g/L @ 1.4 L/Ha
  Percentage Control at 63 DAA: 35.00%
[5]; 450 g/L @ 1.6 L/Ha
  Percentage Control at 63 DAA: 58.75%
[5]; [15]
  Percentage Control at 63 DAA: 52.50%
[5]; Aperaspica-venti, monocot
  Conclusion: efficacy in control vis-à-vis Napropamide at an equivalent dosage: poor efficacy
[6]; 450 g/L @ 1.4 L/Ha
  Percentage Control at 51 DAA: 0.00%
  Percentage Control at 72 DAA: 0.00%
[6]; 450 g/L @ 1.6 L/Ha
  Percentage Control at 51 DAA: 0.00%
  Percentage Control at 72 DAA: 0.00%
[6]; 450 g/L @ 1.8 L/Ha
  Percentage Control at 51 DAA: 0.00%
  Percentage Control at 72 DAA: 0.00%
[6]; 450 g/L @ 2.0 L/Ha
  Percentage Control at 51 DAA: 0.00%
  Percentage Control at 72 DAA: 0.00%
[6]; Triticum aestivum, monocot
  Conclusion: control of the weed: negligible control
[7]; 450 g/L @ 1.6 L/Ha
  Percentage Control at 63 DAA: 100.00%
[7]; 450 g/L @ 2.0 L/Ha
  Percentage Control at 63 DAA: 100.00%
[7]; Fallopia convolvulus, dicot
  Conclusion: efficacy in control vis-à-vis Napropamide at an equivalent dosage: superior efficacy
[8]; 450 g/L @ 1.6 L/Ha
  Percentage Control at 51 DAA: 100.00%
[8]; Cirsium arvense, dicot
  Conclusion: control of the weed at equivalent dosage: superior control
[9]; 450 g/L @ 1.4 L/Ha
  Percentage Control at 63 DAA: 100.00%
[9]; 450 g/L @ 1.6 L/Ha
  Percentage Control at 63 DAA: 100.00%
[9]; Veronica persica, dicot
  Conclusion: efficacy in control vis-à-vis Napropamide at an equivalent dosage: superior efficacy
[10]; [15]
  Percentage Control at 214 DAA: 82.15% and 94.72%
[10]; Senecio vulgaris, dicot
  Conclusion: efficacy in control vis-à-vis Napropamide at an equivalent dosage: superior efficacy
[11]; 450 g/L @ 2.0 L/Ha
  Percentage ground cover %, value in brackets (untreated 0.0%): (99.3%)
[11]; 450 g/L @ 2.0 L/Ha, oilseed rape
  Percentage Control at 49 DAA: 97.00%
[11]; 450 g/L @ 2.0 L/Ha, untreated 4.50
  Percentage ground cover %: 0.30%
[11]; Matricaria sp., dicot, oilseed rape
  Conclusion: efficacy in control vis-à-vis Napropamide at an equivalent dosage: superior efficacy
